Laboratory results from patent EP2114888B1, “TRICYCLIC COMPOUNDS AND THEIR USE AS GLUCOCORTICOID RECEPTOR MODULATORS” (priority 2007, dated 2008).

Assays:
[1] = Oral absorption profile in rats
[2] = system: IFNγ; experiment: Ex vivo LPS-stimulated human whole blood, IFNγ production; assay type: cell-based; settings: mean values
Protocol: Venous blood from human donors was collected as 10 ml aliquots in tubes containing sodium heparin (BD Vacutainer from Becton Dickinson and Company, Franklin Lakes, NY). Blood was added to sterile polystyrene round bottom 96-well tissue culture plates (Corning Costar) at 100 µl/well, omitting the outside wells. Media (RPMI Medium 1640 with L-glutamine, Invitrogen Corporation, Carlsbad, CA) was added to the blood in 90 µl aliquots for a total volume of 190 µl. Outside wells were filled with 200 µl of media. Blood was placed in a humidified 37°C incubator with 5% CO2 while compounds were prepared (nearly 60 minutes).
Compounds were prepared from 10 mM stock solutions in dimethylsulfoxide (DMSO, Sigma-Aldrich). […] Final DMSO and ethanol concentrations in the assay were 0.1 % and 1.5%. The samples were gently triturated twice to mix and replaced in the incubator. LPS stock (E. coli serotype 0111:B4, Sigma-Aldrich), stored in aliquots of 100 µg/ml in RPMI at -20°C, was diluted 1/50 in RPMI to make a working stock solution. After 60 minutes of incubation, 10 µl of the prepared LPS working stock was added to the blood to a final concentration of 100 ng/ml, omitting wells to be used as negative control. The samples were again gently triturated and the plates incubated overnight for 22 hours. Following incubation, the blood was centrifuged at 1500 x g for 5 minutes and the plasma removed to either freeze at -20°C or assay for cytokine release.
IL-1β, IFNγ,IL-6, and TNFα protein levels were measured using Meso Scale assay kits (Meso Scale Discovery, Gaithersburg, MD). Reagents were allowed to come to room temperature. Meso Scale plates were blocked with 30 µl of human plasma/serum assay diluent with gentle shaking for 60 minutes at room temperature. Plates were washed 3x with wash buffer (PBS, Invitrogen Corporation, with 0.05% Tween-20, Sigma-Aldrich). Calibrators for standard curves were prepared in human plasma/serum assay diluent as a 1/5 serial dilution to achieve final concentrations ranging from 50000 pg/ml to 3.2 pg/ml. Samples and calibrators were added at 20 µl/well, then incubated at room temperature with gentle shaking for 90 minutes. Plates were again washed 3 times with wash buffer. Detection antibody was diluted in human plasma/serum antibody diluent to 1 µg/ml and added to the plate at 20 µl/well. Plates were incubated as before for 60 minutes and washed again. Read Buffer T (4x) was diluted 1:1 with mqH2O to 2 times concentration and 150 µl added to each well. Plates were analyzed on the SECTOR Imager 6000 (Meso Scale Discovery) to generate raw signal values.
Individual values were compared to positive and negative controls (vehicle treated blood with LPS and vehicle treated blood without LPS, respectively) to generate % inhibition. Triplicate values were averaged for each donor. The values for two donors were averaged (only one donor was used for IL-1β) and graphed using 4-parameter fit curves in the GraFit 5.0.11 application.

[3] = Oral absorption profile, time to Cmax in dogs; settings: dog, in vivo
[4] = system: IL-6; experiment: IL-1β-stimulated IL-6 production in A549 lung epithelial cells; assay type: cell-based, Human; settings: Homo sapiens, A549
Protocol: Human A549 lung epithelial cells (American Type Culture Collection, Rockville, MD) were cultured in Kaighn's F-12K medium with penicillin-streptomycin (10 U/mL) and 10% heat-inactivated fetal bovine serum (all from Invitrogen, Grand Island, NY). A549 cells were plated at a density of 30,000 cells/well in 96-well plates and incubated overnight at 37°C and with 5% CO2. The cells were serum-starved by replacing the growth medium with serum-free Kaighn's F-12K medium with penicillin-streptomycin (10 U/mL) and, again, incubating overnight at 37°C and with 5% CO2. On the third day, the medium was replaced with fresh serum-free medium and the cells were incubated with or without compound (vehicle was DMSO at 0.1 % maximum concentration) for approximately 1 hour and then stimulated with 1 ng/mL recombinant human IL-1β (R&D Systems, Minneapolis, MN) for 20 hours at 37°C and with 5% CO2. Cell supernatants were collected for determination of IL-6 levels using MSD (Meso Scale Discovery, Gaithersburg, MD) 96-well Single Spot plates as per the manufacturer's instructions. Plates were read with an MSD Sector Imager 6000. […] Percent inhibition for each compound concentration, relative to these controls, was calculated using Excel (Microsoft, Redmond, WA). IC50 values were generated using GraFit 5.0 data analysis software (Erithacus Software Ltd., Surrey, UK).

## Cc1ncccc1NC(=O)c1ccc2c(c1)CC[C@@H]1C[C@@](O)(C(F)(F)F)CC[C@@]21Cc1ccccc1 [Example 1, (4βS,7R,8αR)-4β-benzyl-7-hydroxy-N-(2-methylpyridin-3-yl)-7-(trifluoromethyl)-4β,5,6,7,8,8α,9,10-octahydrophenanthrene-2-carboxamide]
[1]
  bioavailability F: 17%
[1]; oral
  Cmax: 130 ng/mL
[2]; 0.457247 nM
  inhibition at 0.000457247 µM: 16.9%
[2]; 1.371742 nM
  inhibition at 0.00137174 µM: 19.8%
[2]; 4.115226 nM
  inhibition at 0.00411523 µM: -3.18%
[2]; 12.34568 nM
  inhibition at 0.0123457 µM: 26.7%
[2]; 37.03704 nM
  inhibition at 0.037037 µM: 51%
[2]; 111.1111 nM
  inhibition at 0.111111 µM: 60.6%
[2]; 333.3333 nM
  inhibition at 0.333333 µM: 73.5%
[2]; 1000 nM
  inhibition at 1 µM: 78.7%
[3]
  Tmax: 1.5 h
[4]
  inhibition: 86.1%
